# Results reported in PubChem BioAssay (NCI).
#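 Briefly, cells in 96-well plates were exposed to five compound concentrations for 48 h, and endpoints were estimated by linear interpolation. The concentration for 50% growth inhibition is given as GI50. TGI: total growth inhibition.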
# Key:
# Test in all cases: NCI anticancer screen, dose series, 48 h
# [1] = system: 786-0 renal
# [2] = system: A498 renal
# [3] = system: A549 NSCLC
# [4] = system: ACHN renal
# [5] = system: BT-549 breast
# [6] = system: CAKI-1 renal
# [7] = system: CCRF-CEM leukemia
# [8] = system: COLO 205 colon
# [9] = system: DU-145 prostate
# [10] = system: EKVX NSCLC
# [11] = system: HCC-2998 colon
# [12] = system: HCT-116 colon
# [13] = system: HCT-15 colon
# [14] = system: HL-60(TB) leukemia
# [15] = system: HOP-62 NSCLC
# [16] = system: HOP-92 NSCLC
# [17] = system: HS 578T breast
# [18] = system: HT29 colon
# [19] = system: IGROV1 ovarian
# [20] = system: K-562 leukemia
# [21] = system: KM12 colon
# [22] = system: LOX IMVI melanoma
# [23] = system: M14 melanoma
# [24] = system: MALME-3M melanoma
# [25] = system: MCF7 breast
# [26] = system: MDA-MB-231 breast
# [27] = system: MDA-MB-435
# [28] = system: MOLT-4 leukemia
# [29] = system: NCI-H226 lung
# [30] = system: NCI-H23 lung
# [31] = system: NCI-H460 lung
# [32] = system: NCI-H522 lung
# [33] = system: NCI/ADR-RES ovarian
# [34] = system: OVCAR-3 ovarian
# [35] = system: OVCAR-4 ovarian
# [36] = system: OVCAR-5 ovarian
# [37] = system: OVCAR-8 ovarian
# [38] = system: PC-3 prostate
# [39] = system: RPMI-8226 leukemia
# [40] = system: RXF 393 renal
# [41] = system: SF-268 CNS
# [42] = system: SF-295 CNS
# [43] = system: SF-539 CNS
# [44] = system: SK-MEL-2 melanoma
# [45] = system: SK-MEL-28 melanoma
# [46] = system: SK-MEL-5 melanoma
# [47] = system: SK-OV-3 ovarian
# [48] = system: SN12C renal
# [49] = system: SNB-19 CNS
# [50] = system: SNB-75 CNS
# [51] = system: SR leukemia
# [52] = system: SW-620 colon
# [53] = system: T-47D breast
# [54] = system: TK-10 renal
# [55] = system: U251 CNS
# [56] = system: UACC-257 melanoma
# [57] = system: UACC-62 melanoma
# [58] = system: UO-31 renal
smiles,measurement,setting,value
Cc1ccc(Nc2nc(N)c(C(=O)c3ccc(C#N)cc3)s2)cc1,GI50,[1],0.529 µM
same,TGI,[1],> 49.8 µM
same,GI50,[2],0.37 µM
same,TGI,[2],23.1 µM
same,GI50,[3],0.739 µM
same,TGI,[3],> 76.6 µM
same,GI50,[4],0.587 µM
same,TGI,[4],> 80.5 µM
same,GI50,[5],0.475 µM
same,TGI,[5],> 60.9 µM
same,GI50,[6],0.402 µM
same,TGI,[6],25 µM
same,GI50,[7],398 nM
same,TGI,[7],> 100 µM
same,GI50,[8],0.279 µM
same,TGI,[8],6.64 µM
same,GI50,[9],675 nM
same,TGI,[9],> 100 µM
same,GI50,[10],0.573 µM
same,TGI,[10],> 100 µM
same,GI50,[11],1.59 µM
same,TGI,[11],> 53.9 µM
same,GI50,[12],241 nM
same,TGI,[12],6.74 µM
same,GI50,[13],0.202 µM
same,TGI,[13],> 100 µM
same,GI50,[14],288 nM
same,TGI,[14],> 61.7 µM
same,GI50,[15],0.503 µM
same,TGI,[15],> 70.3 µM
same,GI50,[16],0.478 µM
same,TGI,[16],32.4 µM
same,GI50,[17],0.546 µM
same,TGI,[17],> 100 µM
same,GI50,[18],250 nM
same,TGI,[18],> 90.2 µM
same,GI50,[19],1200 nM
same,TGI,[19],> 100 µM
same,GI50,[20],68.5 nM
same,TGI,[20],> 100 µM
same,GI50,[21],338 nM
same,TGI,[21],> 87.1 µM
same,GI50,[22],0.522 µM
same,TGI,[22],> 100 µM
same,GI50,[23],0.308 µM
same,TGI,[23],> 100 µM
same,GI50,[24],5.25 µM
same,TGI,[24],> 100 µM
same,GI50,[25],0.369 µM
same,TGI,[25],> 100 µM
same,GI50,[26],1.01 µM
same,TGI,[26],> 100 µM
same,GI50,[27],0.0779 µM
same,GI50,[28],0.468 µM
same,TGI,[28],> 100 µM
same,GI50,[29],1.6 µM
same,TGI,[29],> 93.5 µM
same,GI50,[30],0.743 µM
same,TGI,[30],> 100 µM
same,GI50,[31],0.389 µM
same,TGI,[31],> 100 µM
same,GI50,[32],0.221 µM
same,GI50,[33],0.196 µM
same,TGI,[33],36.3 µM
same,GI50,[34],0.319 µM
same,TGI,[34],5.43 µM
same,GI50,[35],3.86 µM
same,TGI,[35],> 68.4 µM
same,GI50,[36],2.98 µM
same,TGI,[36],> 100 µM
same,GI50,[37],0.644 µM
same,TGI,[37],> 100 µM
same,GI50,[38],0.347 µM
same,TGI,[38],> 100 µM
same,GI50,[39],560 nM
same,TGI,[39],> 100 µM
same,GI50,[40],0.398 µM
same,TGI,[40],7.44 µM
same,GI50,[41],2.59 µM
same,TGI,[41],> 95.9 µM
same,GI50,[42],0.328 µM
same,TGI,[42],37.7 µM
same,GI50,[43],0.312 µM
same,TGI,[43],2.85 µM
same,GI50,[44],435 nM
same,TGI,[44],46.1 µM
same,GI50,[45],18.9 µM
same,TGI,[45],> 100 µM
same,GI50,[46],0.32 µM
same,TGI,[46],10.7 µM
same,GI50,[47],0.449 µM
same,TGI,[47],46 µM
same,GI50,[48],0.617 µM
same,TGI,[48],> 100 µM
same,GI50,[49],0.509 µM
same,TGI,[49],53.5 µM
same,GI50,[50],0.241 µM
same,TGI,[50],8.11 µM
same,GI50,[51],54.4 nM
same,TGI,[51],> 100 µM
same,GI50,[52],0.336 µM
same,TGI,[52],> 100 µM
same,GI50,[53],384 nM
same,TGI,[53],> 100 µM
same,GI50,[54],10.4 µM
same,TGI,[54],> 78.8 µM
same,GI50,[55],0.434 µM
same,TGI,[55],> 87.3 µM
same,GI50,[56],33.3 µM
same,TGI,[56],> 100 µM
same,GI50,[57],0.416 µM
same,TGI,[57],> 100 µM
same,GI50,[58],0.644 µM
same,TGI,[58],> 100 µM
COc1ccc(-n2cc(-c3ccc(Cl)c(Cl)c3)nc2SCc2cccc(C#N)c2)cc1,GI50,[1],11.8 µM
same,TGI,[1],40.2 µM
same,GI50,[2],12.6 µM
same,TGI,[2],44.5 µM
same,GI50,[3],93.8 µM
same,TGI,[3],> 100 µM
same,GI50,[4],30.4 µM
same,TGI,[4],> 100 µM
same,GI50,[5],21.4 µM
same,TGI,[5],> 100 µM
same,GI50,[6],18 µM
same,TGI,[6],48.8 µM
same,GI50,[7],> 100000 nM
same,TGI,[7],> 100 µM
same,GI50,[8],51.7 µM
same,TGI,[8],> 100 µM
same,GI50,[9],> 100000 nM
same,TGI,[9],> 100 µM
same,GI50,[10],41.9 µM
same,TGI,[10],> 100 µM
same,GI50,[11],79.1 µM
same,TGI,[11],> 100 µM
same,GI50,[12],4550 nM
same,TGI,[12],> 100 µM
same,GI50,[13],42.8 µM
same,TGI,[13],> 100 µM
same,GI50,[14],> 100000 nM
same,TGI,[14],> 100 µM
same,GI50,[15],24.7 µM
same,TGI,[15],> 100 µM
same,GI50,[16],10.1 µM
same,TGI,[16],40.3 µM
same,GI50,[17],18.4 µM
same,TGI,[17],> 100 µM
same,GI50,[18],4700 nM
same,TGI,[18],> 100 µM
same,GI50,[19],4770 nM
same,TGI,[19],28.3 µM
same,GI50,[20],> 100000 nM
same,TGI,[20],> 100 µM
same,GI50,[21],> 100000 nM
same,TGI,[21],> 100 µM
same,GI50,[22],13.9 µM
same,TGI,[22],> 100 µM
same,GI50,[23],48.2 µM
same,TGI,[23],> 100 µM
same,GI50,[24],16.4 µM
same,TGI,[24],> 100 µM
same,GI50,[25],34.5 µM
same,TGI,[25],> 100 µM
same,GI50,[26],68 µM
same,TGI,[26],> 100 µM
same,GI50,[27],12.5 µM
same,TGI,[27],> 100 µM
same,GI50,[28],19.4 µM
same,TGI,[28],> 100 µM
same,GI50,[29],77 µM
same,TGI,[29],> 100 µM
same,GI50,[30],39.8 µM
same,TGI,[30],> 100 µM
same,GI50,[31],51.5 µM
same,TGI,[31],> 100 µM
same,GI50,[32],13.6 µM
same,TGI,[32],> 100 µM
same,GI50,[33],23 µM
same,TGI,[33],> 100 µM
same,GI50,[34],17 µM
same,TGI,[34],> 100 µM
same,GI50,[35],11.9 µM
same,TGI,[35],> 100 µM
same,GI50,[36],94.1 µM
same,TGI,[36],> 100 µM
same,GI50,[37],18.6 µM
same,TGI,[37],> 100 µM
same,GI50,[38],34.1 µM
same,TGI,[38],> 100 µM
same,GI50,[39],> 100000 nM
same,TGI,[39],> 100 µM
same,GI50,[40],13.6 µM
same,TGI,[40],41 µM
same,GI50,[41],37 µM
same,TGI,[41],> 100 µM
same,GI50,[42],22.2 µM
same,TGI,[42],> 100 µM
same,GI50,[43],16.1 µM
same,TGI,[43],41.9 µM
same,GI50,[44],> 100000 nM
same,TGI,[44],> 100 µM
same,GI50,[45],20.2 µM
same,TGI,[45],> 100 µM
same,GI50,[46],20.2 µM
same,TGI,[46],> 100 µM
same,GI50,[47],26.2 µM
same,TGI,[47],> 100 µM
same,GI50,[48],14 µM
same,TGI,[48],35.7 µM
same,GI50,[49],29.2 µM
same,TGI,[49],> 100 µM
same,GI50,[50],17 µM
same,TGI,[50],53.4 µM
same,GI50,[51],> 100000 nM
same,TGI,[51],> 100 µM
same,GI50,[52],60 µM
same,TGI,[52],> 100 µM
same,GI50,[53],5330 nM
same,TGI,[53],74 µM
same,GI50,[54],44.6 µM
same,TGI,[54],> 100 µM
same,GI50,[55],26.8 µM
same,TGI,[55],> 100 µM
same,GI50,[56],66.9 µM
same,TGI,[56],> 100 µM
same,GI50,[57],19.1 µM
same,TGI,[57],> 100 µM
same,GI50,[58],35.2 µM
same,TGI,[58],> 100 µM
